One assay deals with ATXN3-HiBiT protein. The assay is described as follows: ATXN3 Total Protein Assay (Kelly-ATXN3-HiBiT luminescence). It is filed as cell-based. Particulars: Kelly-ATXN3-HiBiT cells, 48 h after addition of compound. The method in brief:
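Kelly cells with homozygous C-terminal HiBiT knock-in on endogenous ATXN3, 2000 per well, dosed 24 h after seeding. HiBiT lytic luminescence read 48 h after compound; sister plate read with CellTiter-Glo for viability; fold change vs DMSO.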

The subject of another assay is total ATXN3 protein. The assay can be described thus: ATXN3 Total Protein Assay (Mesoscale Discovery, SK-N-MC cells). The class given is cell-based, Human. Particulars: incubation for 48 hours, MSD assay. The method in brief:
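Human SK-N-MC neuroblastoma cells treated with compound at 30 μM to 0.6 nM for 48 h, then lysed with protease inhibitors. Total ATXN3 quantified by MSD sandwich immunoassay (mouse capture, rabbit detect antibodies, anti-rabbit MSD-ST secondary) against recombinant ATXN3 standards.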

The subject of assay [1] is ATXN3 transcripts containing exon 4. The assay is described as follows: ATXN3 Quantitative Splicing Assay (qPCR, E4E5 primers/probe). The class given is cell-based. Particulars: Homo sapiens, SK-N-MC cells, compounds for 24 h. The method in brief: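 SK-N-MC human neuroblastoma cells treated 24 h with compound from 30 μM to 0.6 nM, 24 h after plating. Lysate cDNA was run in TaqMan qPCR, with primers/probe E4E5 detecting exon 4-containing ATXN3 transcripts and E8E9 measuring total ATXN3.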
A general note: In qPCR the cycle at which signal appears reflects the starting amount.

SMILES strings stand for the structures.

As usually defined, the EC50 is the concentration giving half of the maximal effect. As usually defined, the IC50 is the concentration that inhibits the measured activity by half. Low values mean inhibition by little substance, high ones a need for much substance.

As for `N[C@H](Cc1oc2c(NCc3cccs3)cc(Cl)nc2c1Br)C1CC1` [Compound 134, 2-[(R)-2-amino-2-cyclopropylethyl]-3-bromo-5-chloro-7-thenylamino-1-oxa-4-azaindene], the EC50 in the assay on ATXN3-HiBiT protein is 501 to 5000 nM. For the same molecule, the IC50 (in the assay with total ATXN3 protein; in assay [1]) was 501 to 5000 nM in each case.
Regarding `C#Cc1c(C[C@@H](N)C2CC(F)(F)C2)oc2c(NCc3cccs3)cc(Cl)nc12` [Compound 139, 2-[(R)-2-amino-2-(3,3-difluorocyclobutyl)ethyl]-5-chloro-3-ethynyl-7-thenylamino-1-oxa-4-azaindene], the EC50 in the assay on ATXN3-HiBiT protein lay in the range of 501 to 5000 nM. Further, the IC50 (in the assay with total ATXN3 protein; in assay [1]) was 501 to 5000 nM each time.
The molecule `C[C@H](F)[C@H](N)Cc1oc2c(NCc3sccc3F)cc(Cl)nc2c1Cl` [Compound 140, 2-[(2R,3S)-2-amino-3-fluorobutyl]-3,5-dichloro-7-{[(3-fluoro-2-thienyl)methyl]amino}-1-oxa-4-azaindene] displayed a concentration for a half-maximal effect (EC50) in the assay on ATXN3-HiBiT protein of 101 to 500 nM. In addition, the half-maximal inhibitory concentration (IC50) (with total ATXN3 protein; in assay [1]) was 101 to 500 nM in each case.
In the assay on ATXN3-HiBiT protein, `Cc1c(C[C@@H](N)[C@H](C)F)oc2c(NCc3sccc3F)cc(Cl)nc12` [Compound 142, 2-[(2R,3S)-2-amino-3-fluorobutyl]-5-chloro-7-{[(3-fluoro-2-thienyl)methyl]amino}-3-methyl-1-oxa-4-azaindene] had an EC50 of 101 to 500 nM. The IC50 (in the assay on total ATXN3 protein; in assay [1]) was 101 to 500 nM each time.
As to `N[C@@H](CCF)Cc1oc2c(NCc3cccs3)cc(Cl)nc2c1Br` [Compound 145, 2-[(R)-2-amino-4-fluorobutyl]-3-bromo-5-chloro-7-thenylamino-1-oxa-4-azaindene], the EC50 in the assay with ATXN3-HiBiT protein lay in the range of 101 to 500 nM. In addition, the IC50 (in the assay on total ATXN3 protein; in assay [1]) was 101 to 500 nM in each case.
Regarding `C[C@H](F)[C@H](N)Cc1oc2c(NCc3cccs3)cc(Cl)nc2c1Cl` [Compound 148, 2-[(2R,3S)-2-amino-3-fluorobutyl]-3,5-dichloro-7-thenylamino-1-oxa-4-azaindene], in the assay on ATXN3-HiBiT protein, the EC50 fell in the range of 0.01 to 100 nM. For the same molecule, the half-inhibitory concentration (IC50) (with total ATXN3 protein; in assay [1]) was 0.01 to 100 nM throughout.
Take `C[C@H](F)[C@H](N)Cc1oc2c(NCc3ccncc3F)cc(Cl)nc2c1Cl` [Compound 149, 2-[(2R,3S)-2-amino-3-fluorobutyl]-3,5-dichloro-7-{[(3-fluoro-4-pyridyl)methyl]amino}-1-oxa-4-azaindene]: the EC50 in the assay with ATXN3-HiBiT protein lay in the range of 101 to 500 nM. Further, the IC50 (in the assay with total ATXN3 protein; in assay [1]) was 101 to 500 nM each time.
In the case of `C[C@H](F)[C@H](N)Cc1oc2c(NCc3ccco3)cc(Cl)nc2c1Cl` [Compound 150, 2-[(2R,3S)-2-amino-3-fluorobutyl]-3,5-dichloro-7-(furfurylamino)-1-oxa-4-azaindene], the EC50 in the assay on ATXN3-HiBiT protein was 0.01 to 100 nM. Besides, the concentration for half-maximal inhibition (IC50) (in the assay with total ATXN3 protein; in assay [1]) was 0.01 to 100 nM in each case.
As for `C#Cc1cc(NCc2cccs2)c2oc(C[C@@H](N)COC)c(Br)c2n1` [Compound 151, 2-[(R)-2-amino-3-methoxypropyl]-3-bromo-5-ethynyl-7-thenylamino-1-oxa-4-azaindene], the EC50 in the assay with ATXN3-HiBiT protein lay within 0.01 to 100 nM. Besides, the IC50 fell in the range of 101 to 500 nM in the assay with total ATXN3 protein and 0.01 to 100 nM in assay [1].
`C[C@H](F)[C@H](N)Cc1oc2c(NCc3ccccc3F)cc(Cl)nc2c1Br` [Compound 152, 2-[(2R,3S)-2-amino-3-fluorobutyl]-3-bromo-5-chloro-7-{[(o-fluorophenyl)methyl]amino}-1-oxa-4-azaindene] had an EC50 in the assay with ATXN3-HiBiT protein of 501 to 5000 nM. In addition, the half-inhibitory concentration (IC50) (with total ATXN3 protein; in assay [1]) was 101 to 500 nM each time.
In turn, `C[C@H](F)[C@H](N)Cc1oc2c(NCc3c(F)cccc3F)cc(Cl)nc2c1Br` [Compound 153, 2-[(2R,3S)-2-amino-3-fluorobutyl]-3-bromo-5-chloro-7-{[(2,6-difluorophenyl)methyl]amino}-1-oxa-4-azaindene] showed an EC50 in the assay on ATXN3-HiBiT protein of 10000 to 40000 nM. For the same molecule, the IC50 in the assay on total ATXN3 protein lay in the range of 5000 to 10000 nM; in assay [1], 10000 to 40000 nM.
On to `N[C@@H](CCOC(F)F)Cc1oc2c(NCc3cccs3)cc(Cl)nc2c1Br` [Compound 154, (S)-2-(2-amino-4-(difluoromethoxy)butyl)-3-bromo-5-chloro-N-(thiophen-2-ylmethyl)furo[3,2-b]pyridin-7-amine], for which, in the assay on ATXN3-HiBiT protein, the EC50 lay in the range of 0.01 to 100 nM. Moreover, the IC50 (with total ATXN3 protein; in assay [1]) was 0.01 to 100 nM in each case.
In the case of `[2H]C([2H])([2H])OC[C@H](N)Cc1oc2c(NCc3cccs3)cc(Cl)nc2c1Br` [Compound 157, 2-[(R)-2-amino-3-(2H3)methoxypropyl]-3-bromo-5-chloro-7-thenylamino-1-oxa-4-azaindene], in the assay with ATXN3-HiBiT protein, the EC50 was 0.01 to 100 nM. Also, the IC50 (in the assay with total ATXN3 protein; in assay [1]) was 0.01 to 100 nM throughout.
Take `CC#Cc1cc(NCc2cccs2)c2oc(C[C@H](C)N)c(Br)c2n1` [Compound 160, 2-[(S)-2-aminopropyl]-3-bromo-5-(1-propynyl)-7-thenylamino-1-oxa-4-azaindene]: the EC50 with ATXN3-HiBiT protein was 101 to 500 nM. The IC50 in the assay on total ATXN3 protein fell in the range of 101 to 500 nM; in assay [1], 501 to 5000 nM.
Take `C#Cc1cc(NCc2cccs2)c2oc(C[C@H](C)N)c(C#C)c2n1` [Compound 162, 2-[(S)-2-aminopropyl]-3,5-diethynyl-7-thenylamino-1-oxa-4-azaindene]: the EC50 with ATXN3-HiBiT protein fell in the range of 101 to 500 nM. Moreover, the half-inhibitory concentration (IC50) (in the assay on total ATXN3 protein; in assay [1]) was 0.01 to 100 nM each time.
In the assay with ATXN3-HiBiT protein, `C=Cc1cc(NCc2cccs2)c2oc(C[C@H](C)N)c(Br)c2n1` [Compound 164, 2-[(S)-2-aminopropyl]-3-bromo-7-thenylamino-5-vinyl-1-oxa-4-azaindene] came in with an EC50 of 501 to 5000 nM. Further, the IC50 (with total ATXN3 protein; in assay [1]) was 5000 to 10000 nM throughout.
`C[C@H](N)Cc1oc2c(NCc3cccs3)cc(C(=O)O)nc2c1Br` [Compound 167, 2-[(2S)-2-aminopropyl]-3-bromo-7-[(thiophen-2-ylmethyl)amino]furo[3,2-b]pyridine-5-carboxylic acid] had an EC50 with ATXN3-HiBiT protein of 10000 to 40000 nM. For the same molecule, the IC50 (in the assay on total ATXN3 protein; in assay [1]) was 10000 to 40000 nM in each case.
`CC[C@H](N)Cc1oc2c(NCc3cccs3)cc(Cl)nc2c1Br` [Compound 169, 2-[(S)-2-aminobutyl]-3-bromo-5-chloro-7-thenylamino-1-oxa-4-azaindene] registered an EC50 with ATXN3-HiBiT protein of 101 to 500 nM. The IC50 with total ATXN3 protein was in the range of 101 to 500 nM; in assay [1], 501 to 5000 nM.
In turn, `C#Cc1cc(NCc2cccs2)c2oc(C[C@@H](N)C3CC(F)(F)C3)c(C#C)c2n1` [Compound 178, 2-[(R)-2-amino-2-(3,3-difluorocyclobutyl)ethyl]-3,5-diethynyl-7-thenylamino-1-oxa-4-azaindene] registered an EC50 with ATXN3-HiBiT protein of 501 to 5000 nM. Besides, the IC50 (in the assay with total ATXN3 protein; in assay [1]) was 501 to 5000 nM in each case.
In the assay with ATXN3-HiBiT protein, `C#Cc1c(C[C@@H](N)C2CC2)oc2c(NCc3cccs3)cc(Cl)nc12` [Compound 180, 2-[(R)-2-amino-2-cyclopropylethyl]-5-chloro-3-ethynyl-7-thenylamino-1-oxa-4-azaindene] yielded an EC50 of 101 to 500 nM. The IC50 (with total ATXN3 protein; in assay [1]) was 101 to 500 nM in each case.
In the assay on ATXN3-HiBiT protein, `C#Cc1cc(NCc2cccs2)c2oc(C[C@@H](N)C3CC3)c(C#C)c2n1` [Compound 181, 2-[(R)-2-amino-2-cyclopropylethyl]-3,5-diethynyl-7-thenylamino-1-oxa-4-azaindene] showed an EC50 of 501 to 5000 nM. Moreover, the IC50 (with total ATXN3 protein; in assay [1]) was 501 to 5000 nM each time.
With `N[C@@H](COC(F)F)Cc1oc2c(NCc3cccs3)cc(Cl)nc2c1Cl` [Compound 188, 2-[(R)-2-amino-3-difluoromethoxypropyl]-3,5-dichloro-7-thenylamino-1-oxa-4-azaindene], in the assay on ATXN3-HiBiT protein, the EC50 fell in the range of 0.01 to 100 nM. Besides, the IC50 (in the assay with total ATXN3 protein; in assay [1]) was 101 to 500 nM in each case.
In turn, `C[C@H](N)C(F)(F)c1oc2c(NCc3cccs3)cc(Cl)nc2c1Cl` [Compound 189, 2-[(S)-2-amino-1,1-difluoropropyl]-3,5-dichloro-7-thenylamino-1-oxa-4-azaindene] returned an EC50 with ATXN3-HiBiT protein of 101 to 500 nM. Further, the IC50 (in the assay with total ATXN3 protein; in assay [1]) was 101 to 500 nM throughout.
The molecule `N[C@@H](CO)C(F)(F)c1oc2c(NCc3cccs3)cc(Cl)nc2c1Cl` [Compound 190, (S)-2-amino-3-(3,5-dichloro-7-thenylamino-1-oxa-4-aza-2-indenyl)-3,3-difluoro-1-propanol] returned an EC50 with ATXN3-HiBiT protein of 501 to 5000 nM. The IC50 (in the assay with total ATXN3 protein; in assay [1]) was 501 to 5000 nM each time.
As to `N[C@@H](CO)C(F)(F)c1oc2c(NCc3cccs3)cc(Cl)nc2c1Br` [Compound 192, (S)-2-amino-3-(3-bromo-5-chloro-7-thenylamino-1-oxa-4-aza-2-indenyl)-3,3-difluoro-1-propanol], the EC50 in the assay on ATXN3-HiBiT protein is 101 to 500 nM. For the same molecule, the IC50 (with total ATXN3 protein; in assay [1]) was 101 to 500 nM in each case.
Consider `COC[C@H](N)C(F)(F)c1oc2c(NCc3cccs3)cc(Cl)nc2c1Br` [Compound 193, 2-[(S)-2-amino-1,1-difluoro-3-methoxypropyl]-3-bromo-5-chloro-7-thenylamino-1-oxa-4-azaindene], for which the EC50 with ATXN3-HiBiT protein fell in the range of 501 to 5000 nM. The IC50 (in the assay with total ATXN3 protein; in assay [1]) was 501 to 5000 nM each time.
For the molecule `C=Cc1c(C[C@H](C)N)oc2c(NCc3cccs3)cc(Cl)nc12` [Compound 194, 2-[(S)-2-aminopropyl]-5-chloro-7-thenylamino-3-vinyl-1-oxa-4-azaindene], the EC50 in the assay with ATXN3-HiBiT protein fell in the range of 101 to 500 nM. Moreover, the IC50 (in the assay with total ATXN3 protein; in assay [1]) was 501 to 5000 nM each time.

For the origin of these results see patent US20260001889A1, “COMPOSITIONS USEFUL FOR MODULATING SPLICING” (Skyhawk Therapeutics, Inc., priority 2022, published 2026).
